In the assay the target is T1, Thromboxane A2 (TXA2) synthetase (Equus caballus, UniProt A0A9L0T8T9).
T1 sequence (A0A9L0T8T9 2-534): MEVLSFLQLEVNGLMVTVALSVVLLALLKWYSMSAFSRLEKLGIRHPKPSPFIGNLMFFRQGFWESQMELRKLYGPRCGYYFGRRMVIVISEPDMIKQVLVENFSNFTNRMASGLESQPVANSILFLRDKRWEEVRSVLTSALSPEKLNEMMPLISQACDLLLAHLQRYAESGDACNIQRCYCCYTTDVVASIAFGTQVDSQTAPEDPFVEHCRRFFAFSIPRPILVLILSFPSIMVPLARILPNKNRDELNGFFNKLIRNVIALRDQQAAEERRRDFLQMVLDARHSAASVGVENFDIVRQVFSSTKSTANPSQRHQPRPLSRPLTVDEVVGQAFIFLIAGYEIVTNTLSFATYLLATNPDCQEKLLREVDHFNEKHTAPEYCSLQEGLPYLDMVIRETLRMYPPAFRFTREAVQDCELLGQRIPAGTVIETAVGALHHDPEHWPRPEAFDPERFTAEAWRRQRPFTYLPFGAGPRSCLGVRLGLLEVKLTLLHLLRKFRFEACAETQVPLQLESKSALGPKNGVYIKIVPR
Nature of the assay: Inhibitory Action on Thromboxane A2 (TXA2) Synthetase (indomethacin-treated horse platelet microsomes, TXB2 radioimmunoassay). It is filed as biochemical. Here is the method: As a specimen of TXA2 synthetase was employed horse platelet microsomes treated with indomethacin (indomethacin-treated horse platelet microsomes: IPM), which were prepared according to the method described by Needleman et al. (Science 193 163, 1976).
to 60 μl of 50 mM tris-buffer solution (pH 7.5) of IPM (containing 140 μg as protein) was added 60 μl of the buffer solution or the solution containing the test compounds at various concentrations. The mixtures were left standing for 5 minutes at room temperature. Then at 0° C. to 100 μl portion of the mixture was added 20 μl of the buffer solution containing 30 ng of prostaglandin H2 (PGH2). The mixtures were left standing for 5 minutes at 0° C. to cause formation of thromboxane A2 (TXA2). The reaction of thromboxane A2 production was stopped by the addition of 500 μl of the tris-buffer to the mixture. Using 50 μl of the mixtures, the quantitative determination of thromboxane B2 (TXB2), a stable metabolite of TXA2, was done by means of the radioimmunoassay (Shibouta et al., Biochem. Pharmacol. 28 3601, 1979).
The inhibitory activity of the compounds on TXA2 -synthetase was determined from the difference in the production of TXB2 between the test group and the control group.

SMILES strings stand for the structures.

In general, inhibition refers to the drop in the measured response relative to a control, in per cent. Read a high inhibition as a strong effect.

Consider `CSC(CCC/C=C(\c1ccccc1)c1cccnc1)C(=O)O` (stereo not drawn) [Compound 4-a], for which, for the setting “3 × 10^-8 M”, testing at 0.03 µM gave an inhibition of 52%. In addition, for the setting “10^-7 M”, the inhibition at 0.1 µM was found to be 84%.
Under “3 × 10^-8 M”, `N#Cc1ccc(CC(CCC/C=C(\c2ccccc2)c2cccnc2)C(=O)O)cc1` (stereo not drawn) [3'-n] registered an inhibition at 0.03 µM of 57%. The compound also gave an inhibition at 0.1 µM (10^-7 M) of 93%.
For `O=C(O)C(CCCC=C(c1ccccc1)c1cccnc1)[S+]([O-])c1ccccc1` (stereo not drawn) [Compound 1-e], for the setting “3 × 10^-8 M”, the inhibition at 0.03 µM came out at 45%. Under “10^-7 M”, this compound came in with an inhibition at 0.1 µM of 80%.
Take `CC(C)(CCC/C=C(\c1cccnc1)c1cccs1)C(=O)O` [Compound 2-c, (E)-2,2-dimethyl-7-(3-pyridyl)-7-(2-thienyl)-6-heptenoic acid]: the “% Inhibition on thromboxane A2 synthetase” value (“% Inhibition” for short) (3 × 10^-8 M) was 92%. Further, the inhibition at 0.1 µM (10^-7 M) stood at 97%.
In the case of `CC(C)(O)C(CCC/C=C(\c1ccccc1)c1cccnc1)C(=O)O` (stereo not drawn) [Compound 5-j], at 0.03 µM the inhibition (3 × 10^-8 M) was 41%. Further, the inhibition at 0.1 µM (10^-7 M) turned out to be 81%.
Under “3 × 10^-8 M”, `CC(C)(CCCC/C=C(/c1ccccc1)c1cccnc1)C(=O)O` [Compound 1-m] yielded an inhibition at 0.03 µM of 44%. In addition, the inhibition at 0.1 µM (10^-7 M) was 92%.
For the setting “3 × 10^-8 M”, `O=C(O)C(CCC/C=C(/c1ccccc1)c1cccnc1)Sc1ccccc1` (stereo not drawn) [Compound 4-c] gave an inhibition at 0.03 µM of 50%. This compound also showed an inhibition at 0.1 µM (10^-7 M) of 88%.
For `CC(C)(CCC/C=C(\c1ccccc1)c1cccnc1)C(=O)O` [Compound 2-a, (E)-2,2-dimethyl-7-phenyl-7-(3-pyridyl)-6-heptenoic acid], the inhibition at 0.03 µM (3 × 10^-8 M) worked out at 83%. For the setting “10^-7 M”, this compound gave an inhibition at 0.1 µM of 92%.
On the same counts, the results for `O=C(O)C(CCC/C=C(\c1ccccc1)c1cccnc1)Sc1ccccc1` (stereo not drawn) [Compound 4-b] are 60% and 93%.
As for `CC(C)(CCC/C=C(/c1ccccc1)c1cccnc1)C(=O)O` [Compound 2-b, (Z)-2,2-dimethyl-7-phenyl-7-(3-pyridyl)-6-heptenoic acid], under “3 × 10^-8 M”, testing at 0.03 µM gave an inhibition of 49%. Where the note is “10^-7 M”, this compound came in with an inhibition at 0.1 µM of 90%.
For `C=C(C)C(CCC/C=C(\c1ccccc1)c1cccnc1)C(=O)O` (stereo not drawn) [Compound 5-g], under “3 × 10^-8 M”, the inhibition at 0.03 µM turned out to be 59%. The compound also displayed an inhibition at 0.1 µM (10^-7 M) of 92%.
On the same counts, the results for `CC(C)(CCCC/C=C(\c1ccccc1)c1cccnc1)C(=O)O` [Compound 1-l] are 48% and 90%.
Consider `CC(C)(CCC/C=C(\c1cccnc1)c1cccs1)C(=O)O` [3'-o], for which the “% Inhibition” value by setting is: (3 × 10^-8 M) 60%; (10^-7 M) 92%.
As for `COCC(CCC/C=C(\c1ccccc1)c1cccnc1)C(=O)O` (stereo not drawn) [3'-i], the inhibition at 0.03 µM (3 × 10^-8 M) came out at 42%. Also, under “10^-7 M”, the inhibition at 0.1 µM was found to be 88%.
`CC(CCCC=C(c1cccnc1)c1ccsc1)C(=O)O` (stereo not drawn) [Compound 2-e]: at 0.03 µM the inhibition (3 × 10^-8 M) was 65%. The compound further gave an inhibition at 0.1 µM (10^-7 M) of 90%.
In the case of `CC(C)(CCC/C=C(/c1cccnc1)c1cccs1)C(=O)O` [3'-p], the “% Inhibition” value (3 × 10^-8 M) stood at 46% and the “% Inhibition” value (10^-7 M) is recorded as 90%.
`O=C(O)C(CCC/C=C(\c1cccnc1)c1cccs1)c1ccccc1` (stereo not drawn) [Compound 2-n]: at 0.03 µM the inhibition (3 × 10^-8 M) was 41%. 0.1 µM produced 96% inhibition (10^-7 M).
On the same counts, the results for `C#CCC(CCC/C=C(\c1ccccc1)c1cccnc1)C(=O)O` (stereo not drawn) [3'-h] are 66% and 93%.
Take `Cc1ccc(S(=O)(=O)C(CCCC/C=C(/c2ccccc2)c2cccnc2)C(=O)O)cc1` (stereo not drawn) [Compound 1-b]: for the setting “3 × 10^-8 M”, the inhibition at 0.03 µM amounted to 45%. For the same compound, under “10^-7 M”, the inhibition at 0.1 µM amounted to 80%.
The compound `CC(C)(CCC/C=C(/c1cccnc1)c1cccs1)C(=O)O` [Compound 2-d, (Z)-2,2-dimethyl-7-(3-pyridyl)-7-(2-thienyl)-6-heptenoic acid] registered an inhibition at 0.03 µM (3 × 10^-8 M) of 62%. The compound also yielded an inhibition at 0.1 µM (10^-7 M) of 92%.
Take `COC(=O)C(C)(CCC/C=C(\c1ccccc1)c1cccnc1)Sc1ccccc1` (stereo not drawn) [Compound 4-h]: 0.03 µM produced 30% inhibition (3 × 10^-8 M). The compound also gave an inhibition at 0.1 µM (10^-7 M) of 87%.
In the case of `O=C(O)C(CCC/C=C(/c1ccccc1)c1cccnc1)Cc1ccccc1` (stereo not drawn) [3'-e], where the note is “3 × 10^-8 M”, 0.03 µM produced 33% inhibition. Where the note is “10^-7 M”, this compound showed an inhibition at 0.1 µM of 90%.
Take `O=C(O)C(CCC/C=C(\c1ccccc1)c1cccnc1)C1=CCCC1` (stereo not drawn) [Compound 5-i]: at 0.03 µM the inhibition (3 × 10^-8 M) was 32%. The compound further had an inhibition at 0.1 µM (10^-7 M) of 77%.
`Cc1ccc(S(=O)(=O)C(CCCC/C=C(\c2ccccc2)c2cccnc2)C(=O)O)cc1` (stereo not drawn) [Compound 1-d]: where the note is “3 × 10^-8 M”, the inhibition at 0.03 µM is 57%. The same compound returned an inhibition at 0.1 µM (10^-7 M) of 85%.

Source of the values: patent US4518602A, “Vinyl carboxylic acid derivatives, their production and use as inhibitors of thromboxane synthetase” (priority 1982, dated 1985).
